Measured values: ChEMBL document CHEMBL1201862, “PubChem BioAssay data set” (2004)
Several values for one entry are separate records, joined by “and”; a condition that tells them apart may be missing. Identical values can stand only once. Activity calls are given as the source filed them.

Key:
Troponin, cardiac muscle = Troponin, cardiac muscle (Homo sapiens, UniProt P19429+P45379+P63316); assay: Fluorescence-based biochemical high throughput dose response assay for activators of the calcium sensitivity of cardiac Regulated Thin Filaments (RTF). [Related pubchem assays (depositor defined):AID493008, AID493018, AID504382, AID504383]; type: protein-complex assay
Melanocortin receptor 4 = Melanocortin receptor 4 (Homo sapiens, UniProt P32245); type: functional, cell-based;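 also: Cell-based assay with luminescence read-out, confirmatory dose-response testing for agonist activity of biased ligands at MC4R; human U2OS cells with tagged receptor and beta-arrestin; potency of agonists that increase receptor coupling to beta-arrestin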
X-box-binding protein 1 = target: T1, X-box-binding protein 1 (Homo sapiens, UniProt P17861); type: functional, Cricetulus griseus;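 also: confirmatory dose-response counter-screen serving a CHOP assay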
T1 sequence (P17861 whole entry): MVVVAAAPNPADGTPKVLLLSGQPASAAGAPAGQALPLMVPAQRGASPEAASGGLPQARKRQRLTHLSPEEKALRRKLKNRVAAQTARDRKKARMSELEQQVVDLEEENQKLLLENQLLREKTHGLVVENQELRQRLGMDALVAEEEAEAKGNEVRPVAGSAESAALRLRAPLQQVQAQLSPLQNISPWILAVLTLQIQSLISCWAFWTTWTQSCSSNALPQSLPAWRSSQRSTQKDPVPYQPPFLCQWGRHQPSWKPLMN

Coagulation factor XII = target: T2, Coagulation factor XII (Homo sapiens, UniProt P00748); type: functional;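 also: activated factor XIIa alpha cleaving a fluorogenic AMC peptide substrate; inhibitor potency from loss of enzyme activity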
T2 sequence (P00748 whole entry): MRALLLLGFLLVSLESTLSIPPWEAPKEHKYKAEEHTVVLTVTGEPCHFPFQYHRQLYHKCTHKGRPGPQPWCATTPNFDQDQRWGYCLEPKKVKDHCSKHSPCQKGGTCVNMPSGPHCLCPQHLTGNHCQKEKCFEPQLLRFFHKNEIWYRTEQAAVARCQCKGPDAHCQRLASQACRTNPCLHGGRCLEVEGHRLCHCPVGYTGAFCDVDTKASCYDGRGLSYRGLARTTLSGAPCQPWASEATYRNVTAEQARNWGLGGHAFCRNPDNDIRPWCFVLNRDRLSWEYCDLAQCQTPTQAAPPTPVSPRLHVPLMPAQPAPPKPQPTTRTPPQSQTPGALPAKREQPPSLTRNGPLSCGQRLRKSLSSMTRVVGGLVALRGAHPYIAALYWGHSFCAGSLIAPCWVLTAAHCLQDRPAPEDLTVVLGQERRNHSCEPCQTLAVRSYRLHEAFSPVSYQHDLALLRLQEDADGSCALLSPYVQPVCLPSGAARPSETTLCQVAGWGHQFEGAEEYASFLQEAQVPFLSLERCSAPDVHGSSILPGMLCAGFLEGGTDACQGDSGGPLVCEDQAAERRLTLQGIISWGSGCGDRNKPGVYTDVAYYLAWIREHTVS

Leucine aminopeptidase = target: T3, Leucine aminopeptidase (Plasmodium falciparum 3D7, UniProt Q8IL11); assay: P. falciparum M17LAP inhibitors, primary screen, biochemical, fluorogenic H-Leu-NHMec substrate, 1536-well (AID 1619); type: functional
T3 sequence (Q8IL11 whole entry): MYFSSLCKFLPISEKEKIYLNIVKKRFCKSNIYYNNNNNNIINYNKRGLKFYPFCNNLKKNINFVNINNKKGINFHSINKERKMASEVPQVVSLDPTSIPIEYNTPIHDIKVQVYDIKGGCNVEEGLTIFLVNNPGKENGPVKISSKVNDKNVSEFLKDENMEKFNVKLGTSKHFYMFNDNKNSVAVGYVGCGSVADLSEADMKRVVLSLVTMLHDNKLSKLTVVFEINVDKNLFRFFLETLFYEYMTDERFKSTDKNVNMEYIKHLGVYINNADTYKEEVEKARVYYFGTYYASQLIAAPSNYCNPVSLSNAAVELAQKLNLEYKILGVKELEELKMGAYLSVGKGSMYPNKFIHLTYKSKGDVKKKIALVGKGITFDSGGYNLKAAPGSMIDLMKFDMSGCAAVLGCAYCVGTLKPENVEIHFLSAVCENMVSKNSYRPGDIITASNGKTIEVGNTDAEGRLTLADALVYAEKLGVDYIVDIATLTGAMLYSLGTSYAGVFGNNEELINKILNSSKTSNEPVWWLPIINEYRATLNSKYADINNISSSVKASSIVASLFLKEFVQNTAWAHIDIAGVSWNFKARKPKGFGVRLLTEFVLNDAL

[1] = target: DNA dC->dU-editing enzyme APOBEC-3G (Homo sapiens, UniProt Q9HC16); assay: Dose Response confirmation of small molecule APOBEC3G DNA Deaminase Inhibitors via a fluorescence-based single-stranded DNA deaminase assay. [Related pubchem assays (depositor defined):AID493012, AID493028]; type: functional
H9c2 = assay: cells; type: functional, cell-based; settings: Rattus norvegicus, H9c2, Myocardium
Cytochrome P450 1A2 = target: T4, Cytochrome P450 1A2 (Homo sapiens, UniProt P05177);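 also: PubChem cytochrome P450 panel assay, CYP1A2 panel member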
T4 sequence (P05177 whole entry): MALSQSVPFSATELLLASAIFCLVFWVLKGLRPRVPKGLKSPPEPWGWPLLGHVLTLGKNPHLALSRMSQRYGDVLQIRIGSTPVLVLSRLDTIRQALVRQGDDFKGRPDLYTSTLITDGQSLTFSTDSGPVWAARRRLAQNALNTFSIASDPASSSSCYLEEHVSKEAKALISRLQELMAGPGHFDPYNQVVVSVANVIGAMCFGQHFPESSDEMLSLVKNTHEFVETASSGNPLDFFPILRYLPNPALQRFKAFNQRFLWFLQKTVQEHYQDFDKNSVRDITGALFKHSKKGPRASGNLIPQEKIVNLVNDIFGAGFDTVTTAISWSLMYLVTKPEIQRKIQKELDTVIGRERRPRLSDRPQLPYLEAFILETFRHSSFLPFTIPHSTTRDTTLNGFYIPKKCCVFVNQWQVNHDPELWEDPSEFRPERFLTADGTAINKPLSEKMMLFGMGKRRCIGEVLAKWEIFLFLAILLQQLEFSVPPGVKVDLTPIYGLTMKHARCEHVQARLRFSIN

[2] = target: T5, Replicative DNA helicase DnaB (Mycobacterium tuberculosis, UniProt P9WMR3); assay: DnaB intein splicing inhibitors, dose response, biochemical, cell-free fluorescence (AID 449749); type: functional
T5 sequence (P9WMR3 whole entry): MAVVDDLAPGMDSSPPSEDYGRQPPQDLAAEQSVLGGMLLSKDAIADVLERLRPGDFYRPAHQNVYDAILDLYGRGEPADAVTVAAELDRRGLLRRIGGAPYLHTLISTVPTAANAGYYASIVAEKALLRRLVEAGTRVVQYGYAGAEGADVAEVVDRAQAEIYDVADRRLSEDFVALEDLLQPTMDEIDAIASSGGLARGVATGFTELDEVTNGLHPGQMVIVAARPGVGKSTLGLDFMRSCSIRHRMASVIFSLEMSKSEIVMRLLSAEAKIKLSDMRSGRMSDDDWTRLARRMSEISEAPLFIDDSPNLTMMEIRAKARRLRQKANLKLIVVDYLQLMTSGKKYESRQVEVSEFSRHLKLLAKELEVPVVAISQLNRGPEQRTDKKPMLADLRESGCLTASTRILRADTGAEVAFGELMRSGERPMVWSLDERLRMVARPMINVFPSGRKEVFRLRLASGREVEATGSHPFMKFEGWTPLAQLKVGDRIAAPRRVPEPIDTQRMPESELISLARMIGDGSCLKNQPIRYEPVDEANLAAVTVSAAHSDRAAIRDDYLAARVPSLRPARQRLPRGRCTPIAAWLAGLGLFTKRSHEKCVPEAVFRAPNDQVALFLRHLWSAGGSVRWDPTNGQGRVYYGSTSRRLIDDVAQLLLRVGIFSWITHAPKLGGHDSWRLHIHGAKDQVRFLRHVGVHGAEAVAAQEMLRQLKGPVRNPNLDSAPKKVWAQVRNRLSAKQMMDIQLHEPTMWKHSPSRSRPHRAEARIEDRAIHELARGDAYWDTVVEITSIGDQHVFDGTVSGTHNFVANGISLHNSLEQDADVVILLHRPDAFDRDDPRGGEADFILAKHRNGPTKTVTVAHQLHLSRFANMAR

Cytochrome P450 2C19 = Cytochrome P450 2C19 (Homo sapiens, UniProt P33261); assay: Cytochrome panel assay with activity outcomes. Panel member name: p450-cyp2c19 Compounds with AC50 equal or less than 10 uM are considered active; type: functional; settings: read-out: AC50
[3] = target: T6, Short transient receptor potential channel 4 (Mus musculus, UniProt Q9QUQ5); assay: calcium entry via TRPC4 opening agents – cell-based, HEK293 TRPC4/mu-opioid, Fluo-4 calcium, dose response (AID 434937); type: functional
T6 sequence (Q9QUQ5 whole entry): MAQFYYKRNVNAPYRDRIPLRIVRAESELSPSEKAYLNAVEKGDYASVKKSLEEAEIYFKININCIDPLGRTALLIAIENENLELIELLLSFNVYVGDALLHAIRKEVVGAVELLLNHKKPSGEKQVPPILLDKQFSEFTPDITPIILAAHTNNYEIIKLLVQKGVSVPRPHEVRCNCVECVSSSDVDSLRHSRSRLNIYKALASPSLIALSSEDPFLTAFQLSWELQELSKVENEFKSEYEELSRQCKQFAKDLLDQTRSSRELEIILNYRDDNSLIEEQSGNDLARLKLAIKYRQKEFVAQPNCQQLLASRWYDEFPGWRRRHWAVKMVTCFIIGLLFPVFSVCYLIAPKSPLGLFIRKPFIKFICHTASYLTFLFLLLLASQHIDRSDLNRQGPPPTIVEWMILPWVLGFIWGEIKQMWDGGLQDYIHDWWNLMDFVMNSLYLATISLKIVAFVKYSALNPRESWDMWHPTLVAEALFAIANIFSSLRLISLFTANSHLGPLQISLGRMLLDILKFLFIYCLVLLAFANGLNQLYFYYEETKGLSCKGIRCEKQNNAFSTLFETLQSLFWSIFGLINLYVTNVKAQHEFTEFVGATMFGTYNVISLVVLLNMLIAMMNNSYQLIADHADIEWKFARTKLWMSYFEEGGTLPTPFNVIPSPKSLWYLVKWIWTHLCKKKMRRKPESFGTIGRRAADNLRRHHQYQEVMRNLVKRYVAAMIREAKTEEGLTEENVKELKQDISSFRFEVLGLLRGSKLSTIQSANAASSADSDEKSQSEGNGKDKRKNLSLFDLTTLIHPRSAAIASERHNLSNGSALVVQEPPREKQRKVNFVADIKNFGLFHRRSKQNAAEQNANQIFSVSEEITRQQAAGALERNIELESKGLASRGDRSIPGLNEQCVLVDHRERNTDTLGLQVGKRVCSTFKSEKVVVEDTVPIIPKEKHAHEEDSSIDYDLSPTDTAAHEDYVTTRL

[4] = microbe, parasite or virus in culture; type: functional; settings: Mycobacterium tuberculosis
Protein RecA = target: T7, Protein RecA (Mycobacterium tuberculosis, UniProt P9WHJ3); assay: Fluorescence Cell-Free Homogeneous Dose Retest to Identify Inhibitors of RecA-Intein Splicing Activity. [Related pubchem assays (depositor defined):AID2097, AID2223, AID489010, AID492950]; type: functional
T7 sequence (P9WHJ3 whole entry): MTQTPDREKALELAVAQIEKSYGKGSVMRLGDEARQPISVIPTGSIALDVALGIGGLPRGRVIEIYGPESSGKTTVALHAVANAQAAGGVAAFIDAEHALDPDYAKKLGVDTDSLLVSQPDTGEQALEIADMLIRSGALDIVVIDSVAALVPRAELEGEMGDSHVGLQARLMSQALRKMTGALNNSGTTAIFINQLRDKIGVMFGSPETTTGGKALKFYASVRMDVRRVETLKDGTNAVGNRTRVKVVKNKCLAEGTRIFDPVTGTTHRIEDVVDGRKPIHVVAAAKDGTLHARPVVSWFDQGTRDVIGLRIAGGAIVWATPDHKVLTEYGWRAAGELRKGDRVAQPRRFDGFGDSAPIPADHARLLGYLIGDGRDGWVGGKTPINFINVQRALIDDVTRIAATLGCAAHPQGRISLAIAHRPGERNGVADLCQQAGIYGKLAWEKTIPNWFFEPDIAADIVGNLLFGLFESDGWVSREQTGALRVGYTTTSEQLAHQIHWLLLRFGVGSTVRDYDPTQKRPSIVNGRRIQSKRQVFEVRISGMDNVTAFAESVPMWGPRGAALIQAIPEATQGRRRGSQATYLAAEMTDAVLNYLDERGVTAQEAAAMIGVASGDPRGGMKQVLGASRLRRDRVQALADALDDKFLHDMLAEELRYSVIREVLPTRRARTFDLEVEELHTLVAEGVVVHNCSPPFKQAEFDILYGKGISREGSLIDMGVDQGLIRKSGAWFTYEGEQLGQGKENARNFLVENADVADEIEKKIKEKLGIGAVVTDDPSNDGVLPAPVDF

## Cc1ccc(S(=O)(=O)NCCCCCC(=O)Nc2ccccc2C)cc1
Troponin, cardiac muscle
  EC50: > 71.5 µM (inactive)

## Cc1ccc2nc(Nc3ccc4[nH]c(O)nc4c3)c(-n3nc(C)cc3C)nc2c1
Melanocortin receptor 4
  EC50: > 89.2 µM (inactive)
X-box-binding protein 1
  Absolute IC50 (XBP1): 10 µM

## Cc1nc2ccccc2n1C1CCN(Cc2nnnn2CCc2ccccc2)CC1
Coagulation factor XII
  IC50: > 50 µM (inactive)

## CCOc1ccccc1N1C(=O)CC(Sc2n[nH]c(-c3ccccc3)n2)C1=O (configuration not stated)
Leucine aminopeptidase
  IC50: 8.97 µM (active)
[1]
  IC50: 9.92 µM (active)

## COc1cccc(CC(NC(C)=O)C(=O)NC2CCN(c3nc(C)cc(C)c3C#N)CC2)c1OC (configuration not stated)
Troponin, cardiac muscle
  EC50: > 71.5 µM (inactive)

## COC(=O)C(C)Sc1nnc(Cc2cc(O)nc(O)n2)n1-c1ccc(Cl)cc1 (configuration not stated)
Coagulation factor XII
  IC50: > 50 µM (inactive)

## COc1ccc(/C=N/NC(=O)c2cc(OC)c(OC)c(OC)c2)cc1CN1CCc2cc(OC)c(OC)cc2C1C (configuration not stated)
Troponin, cardiac muscle
  EC50: > 71.5 µM (inactive)
H9c2
  IC50: 19.5 µM (active)

## O=C1NCN(c2ccccc2)C12CCN(CCCC(c1ccc(F)cc1)c1ccc(F)cc1)CC2
Cytochrome P450 1A2
  AC50: 12.6 µM (inconclusive)
[2]
  AC50: 9.69 µM (active)
Cytochrome P450 2C19
  AC50: 7.94 µM (inconclusive) and 15.8 µM (inconclusive)
[3]
  EC50: 6.68 µM (active)
[4]
  CC50: 32.9 µM (active)
Protein RecA
  EC50: 20.2 µM (active)
X-box-binding protein 1
  Absolute IC50 (XBP1): 10 µM
